Common to all, as to assay type: cell-based, human
One data set deals with OR10H1 mRNA. The experiment in a line: RT-PCR of OR10H1 mRNA after siRNA transfection. Particulars: M579-A2 cells, 72 h after transfection. How it is done: SMART pool siRNA against OR10H1 (GE Dharmacon) were tested (by RT-PCR) for their activity in downregulating OR10H1 mRNA in M579 (melanoma) cells. […] Details of the respective siRNAs are set out in Table E1.
For data set [1], the system named is M579-A2-luc cells.
The subject of a further data set is OR10H1. Nature of the data set: Stable lentiviral shRNA knock-down of OR10H1 in M579-A2.
Data set [2] concerns M579-A2-luc cells. The experiment in a line: Luc-CTL cytotoxicity assay, TIL412-mediated killing of M579-A2-luc. The source says: It was surprising to find that all siRNAs show an impact on TIL412-mediated killing of M579-A2-luc at 5:1 Effector to Target cell (E:T) ratio (FIG. 1B). Transfection of M579-A2-luc cells with OR10H1 siRNA 1 increased HLA-matched patient-derived tumor-infiltrating lymphocyte (TIL, clone 412)-mediated killing to 70% (30% remaining melanoma cells compared to a scrambled negative control siRNA; p=<0.0001). This increase in TIL-mediated lysis is stronger than for PD-L1 positive control knock-down (39% remaining cells).
(§1) The effects of siRNA knock-down on TIL-mediated killing and lysis in a chromium release assay were investigated as described in Khandelwal et al, 2015 (EMBO Mol Med 7:450-63). Tumor-infiltrating lymphocytes 412 and 209 microcultures were expanded from an inguinal lymph node of a melanoma patient as described in Dudley et al, 2010 (Clin Cancer Res 16:6122-31). M615, TIL615 and other patient-derived TIL cells were obtained analogously as described in Dudley et al, 2010. M579-A2-luc cells and M615-luc cells were produced from M579-A2 and M615, respectively (Machlenkin et al, 2008; Cancer Res 68:2006-13).

The subject of data set [3] is SW480 colorectal cancer cells. Nature of the data set: Chromium release assay, lysis of SW480 by HLA-matched TILs. Conditions: SW480, 50:1 E:T ratio, 4 h co-culture. How it is done:
(§2) Furthermore, it was tested whether OR10H1 knock-down also has an effect in other cancers. […] SW480 (ATCC) and PANC-1 cells were analyzed for their expression of OR10H1 (see above) and the knock-down efficacy of the siRNAs were validated. The CRC cell line SW480 and the PANC-1 cell line were each co-cultured with corresponding HLA-matched TILs for chromium release (4 h co-culture). OR10H1 siRNA 1 almost tripled the lysis of SW480 by TILs in all effector to target ratios compared to the negative control siRNA (33% to 12.8% specific lysis at 50:1 E:T ratio; FIG. 1E). Indeed, knock-down of OR10H1 was almost as effective as knock-down of PD-L1 positive control on TIL-mediated lysis (FIG. 1E). Such effect was also surprising to see in pancreatic cancer cells: knock-down of OR10H1 (siRNA 1) doubled the lysis of PANC-1 by TILs in all effector to target ratios compared to the negative control siRNA (53% to 26% specific lysis at 50:1 E:T ratio; FIG. 1F).
(§3) The effects of siRNA knock-down on TIL-mediated killing and lysis in a chromium release assay were investigated as described in Khandelwal et al, 2015 (EMBO Mol Med 7:450-63). Tumor-infiltrating lymphocytes 412 and 209 microcultures were expanded from an inguinal lymph node of a melanoma patient as described in Dudley et al, 2010 (Clin Cancer Res 16:6122-31). […]

In a further data set the test system is M579-A2 cells. Nature of the data set: Chromium release assay, lysis of M579-A2 by TIL209. Conditions: TIL209, 12.5 E:T ratio, 4 h co-culture. The procedure:
TIL-mediated lysis of M579-A2 was validated in chromium release assay (4 h co-culture). […] Indeed, this effect of OR10H1 knock-down was stronger than the PD-L1 positive control knock-down (41% specific lysis at 12.5 E:T ratio; FIG. 1C).
as §1

Data set [4] relates to PANC-1 pancreatic adenocarcinoma cells. The experiment in a line: Chromium release assay, lysis of PANC-1 by HLA-matched TILs. Particulars: PANC-1, 50:1 E:T ratio, 4 h co-culture. How it is done: as §2, §3
The next data set relates to TIL412. The experiment in a line: Luminex cytokine secretion of TIL412 after co-culture with M579-A2. Particulars: 20 h co-culture.

Take “OR10H1 siRNA 2: siRNA against OR10H1, AGUAAACUCUACCCAGAAA, GE Dharmacon D-020479-02, SEQ ID No. 25 (listed as RNA, chemistry not given here; listed as Homo sapiens)”: the “knock-down of OR10H1 mRNA (RT-PCR)” value with OR10H1 mRNA is given as “weaker but clear reduction”.
On to cholera toxin, for which, in the data set with M579-A2-luc cells [1], the TIL-mediated lysis result was “around 30%”, the “effect on OR10H1 knockdown-mediated increase in TIL-mediated tumor lysis” value is given as “abrogated”, the “effect on TIL-mediated tumor lysis in OR10H1 siRNA transfected (OR10H1-negative) M579-A2-luc” value is on record as “dramatically decreases” and the “effect on TIL-mediated tumor lysis in control siRNA transfected M579-A2-luc” value was “slight decrease”.
As for “OR10H1 shRNA 4: shRNA against OR10H1, TCTGCTGAAGGTCGGAACAAG, Sigma Aldrich TRCN0000357708, SEQ ID No. 31 (the letters are possibly those of the target site; listed as Homo sapiens)”, the “impact on OR10H1 expression and functionality” value in the data set on OR10H1 is reported as “strongest impact”.
“OR10H1 siRNA 4: siRNA against OR10H1, GGUCGUGCACUAUGGCUUU, GE Dharmacon D-020479-04, SEQ ID No. 27 (listed as RNA, chemistry not given here; listed as Homo sapiens)”: the “knock-down of OR10H1 mRNA (RT-PCR)” value in the data set on OR10H1 mRNA was “weaker but clear reduction”.
Take “OR10H1 siRNA 3: siRNA against OR10H1, GCAGAGAGCCAAUCACUCC, GE Dharmacon D-020479-03, SEQ ID No. 26 (listed as RNA, chemistry not given here; listed as Homo sapiens)”: the “knock-down of OR10H1 mRNA (RT-PCR)” value in the data set on OR10H1 mRNA was “strong reduction”. Besides, in the data set on M579-A2-luc cells [2] (without the presence of TILs), the “effect on M579-A2-luc viability” value is “shows an effect”.
As to pertussis toxin, in the data set on M579-A2-luc cells [1], the “effect on TIL-mediated tumor lysis in OR10H1 siRNA transfected (OR10H1-negative) M579-A2-luc” value was “not observed” and the “effect on TIL-mediated tumor lysis in control siRNA transfected M579-A2-luc” value is recorded as “slightly decreased”.
For “OR10H1 siRNA 1: siRNA against OR10H1, GGAGACACCUUGAUGGGCA, GE Dharmacon D-020479-01, SEQ ID No. 24 (listed as RNA, chemistry not given here; listed as Homo sapiens)”, the “knock-down of OR10H1 mRNA (RT-PCR)” value with OR10H1 mRNA was “complete absence”. Further, in the data set with M579-A2-luc cells [2] (TIL412, 5:1 E:T ratio), the TIL-mediated killing worked out at 70% and the “remaining melanoma cells compared to scrambled negative control siRNA” value was determined as 30%. Moreover, the specific lysis in data set [3] is listed as 33%. The specific lysis with M579-A2 cells is 57%. The specific lysis in data set [4] came out at 53%. In the data set with TIL412, the “decrease of IL-6 secretion” value is listed as 37%, the “decrease of MCP-1 secretion” value is 39%, the “increase of IFN-gamma secretion compared to negative control” value was found to be 8% and the “increase of IL-2 secretion” value is 58%. Also, in the data set on TIL412 (supernatant), the IFN-gamma secretion amounted to 3037 pg/mL, the IL-2 secretion is 1701 pg/mL, the IL-4 secretion stood at 11.8 pg/mL and the IL-6 secretion worked out at 31 pg/mL. The MCP-1 secretion in the data set on TIL412 (supernatant) is 4035 pg/mL. For the same substance, the “decrease of IL-4 secretion” value in the data set on TIL412 (trend) was 20%.
